This experiment concerns the target T1, recombinant human mPGES-1 (Homo sapiens, UniProt O14684).
T1 construct: made in house; host or cells: Rosetta E. coli (microsomal/membrane fraction)
T1 sequence (O14684 1-152): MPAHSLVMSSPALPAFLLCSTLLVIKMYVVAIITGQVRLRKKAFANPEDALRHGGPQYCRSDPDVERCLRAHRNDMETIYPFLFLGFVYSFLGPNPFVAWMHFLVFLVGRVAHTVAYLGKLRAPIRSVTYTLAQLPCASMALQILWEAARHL
Kind of experiment: mPGES-1 inhibition test (microsomes, HTRF detection of PGE2). The experiment is classed as biochemical. Here is the method:
Microsomes from Rosetta E. coli bacteria expressing recombinant human mPGES-1 is dissolved in 0.1 M KPi pH 7.4 buffer containing 2.5 mM GSH. 50 μl of the enzyme is subsequently dispensed in a 384-well plate. 0.5 μl of the inhibitor dissolved in DMSO at is thereafter added to each well and incubated for 25 minutes at room temperature.
Subsequently, 2 μl of PGH2 dissolved in an appropriate solvent is added to each well and after one minute the acidified stop solution containing FeCl2 is added. 4 μl of the total volume is transferred to a separate plate and diluted 750-fold in two separate steps before HTRF detection of PGE2.
The HTRf detection is performed by the use of a commercially available kit from CisBio essentially according to the manufacturer's protocol. Briefly, 10 μl of the diluted sample is transferred to a white 384-well plate. 5 μl of d2 and 5 μl Eu3+-Cryptate labeled anti-PGE2 is added to each well containing samples by the use of a Multidrop. The plate is covered with a plastic self-adhesive film, centrifuged at 1200 rpm for 1 minute and subsequently stored at +4° C. over night.
After over night incubation the fluorescence is measured by the use of an appropriate microplate reader. The fluorescence of europium cryptate, and d2 are measured using the following excitation and emission wavelength, europium cryptate: λmax^ex=307 nm, λmax^em=620 nm and d2: λmax^ex=620 nm, λmax^em=665 nm), respectively. The extent of the specific FRET is measured as a ratio of the emission intensity at 665 nm vs. that at 620 nm. A standard curve using synthetic PGE2 is used to quantify the amount of PGE2 in unknown samples.
On the technique in general: In TR-FRET formats the signal depends on donor and acceptor labels being close together.

The structures appear in SMILES notation.

With `Cn1c(Nc2c(Cl)cncc2Cl)nc2cc(C(=O)Nc3ccc(Br)cc3)ncc21` [Example 472, N-(4-Bromophenyl)-2-(3,5-dichloropyridin-4-ylamino)-3-methyl-3H-imidazo[4,5-c]-pyridine-6-carboxamide], the inhibition at 10 µM came to 96%. On the same count and under the same terms, next, `Cc1cc(C(F)(F)F)cc(NC(=O)c2cc3[nH]c(Nc4c(Cl)cncc4Cl)nc3cn2)n1` [Example 733, 2-(3,5-Dichloro-pyridin-4-yl-amino)-N-(6-methyl-4-trifluoromethyl-pyridin-2-yl)-1H-imidazo[4,5-c]pyridine-6-carboxamide]: 99%. `CN(C)c1cc(C(F)(F)F)cc(NC(=O)c2cc3[nH]c(Nc4c(Cl)cncc4Cl)nc3cn2)n1` [Example 739, 2-(3,5-Dichloro-pyridin-4-yl-amino)-N-(6-dimethylamino-4-trifluoromethyl-pyridin-2-yl)-1H-imidazo[4,5-c]pyridine-6-carboxamide]: the inhibition at 10 µM is 100%.

`O=C(Nc1cc(C(F)(F)F)ccn1)c1cc2[nH]c(Nc3c(F)cc(F)cc3Cl)nc2cn1` [Example 731, 2-(2-Chloro-4,6-difluoro-phenylamino)-N-(4-trifluoromethyl-pyridin-2-yl)-1H-imidazo[4,5-c]pyridine-6-carboxamide]: the inhibition at 10 µM was 100%.

As for `O=C(NC1CCCCC1)c1cc2[nH]c(Nc3c(Cl)cccc3Cl)nc2cn1` [Example 137, 2-(2,6-Dichloro-phenylamino)-3H-imidazo[4,5-c]pyridine-6-carboxylic acid-cyclohexyl-amide], the inhibition at 10 µM came to 100%.

As to `Cc1cc(NC(=O)c2cc3[nH]c(Nc4c(Cl)cccc4Cl)nc3cn2)ncc1Cl` [Example 718, 2-(2,6-Dichlorophenylamino)-N-(5-chloro-4-methyl-pyridin-2-yl)-1H-imidazo[4,5-c]pyridine-6-carboxamide], the inhibition at 10 µM stood at 100%. On the same count and under the same terms, next, `Cn1c(Nc2c(Cl)cncc2Cl)nc2cc(C(=O)Nc3cc(C(F)(F)F)ccn3)ncc21` [Example 482, 2-(3,5-Dichloropyridin-4-ylamino)-3-methy-N-(4-trifluoromethyl-pyridin-2-yl)-3H-imidazo[4,5-c]pyridine-6-carboxamide]: 98%.

For the molecule `Cn1c(Nc2cnccc2C(F)(F)F)nc2cc(C(=O)Nc3cc(C(F)(F)F)ccn3)ncc21` [Example 734, 2-(4-Trifluoromethyl-pyridin-3-ylamino)-3-methyl-N-(4-trifluoromethyl-pyridin-2-yl)-3H-imidazo[4,5-c]pyridine-6-carboxamide], the inhibition at 10 µM was found to be 99%. As to `O=C(Nc1cc(C(F)(F)F)ccn1)c1cc2[nH]c(Nc3c(F)cccc3Cl)nc2cn1` [Example 729, 2-(2-Chloro-6-fluoro-phenylamino)-N-(4-trifluoromethyl-pyridin-2-yl)-1H-imidazo[4,5-c]pyridine-6-carboxamide], the inhibition at 10 µM is 100%. With `O=C(Nc1cc(C2CCC2)ccn1)c1cc2[nH]c(Nc3c(Cl)cncc3Cl)nc2cn1` [Example 738, 2-(3,5-Dichloro-pyridin-4-yl-amino)-N-(4-cyclobutyl-pyridin-2-yl)-1H-imidazo[4,5-c]pyridine-6-carboxamide], the inhibition at 10 µM was 100%. On the same count and under the same terms, to `CC(C)(C)c1ccnc(NC(=O)c2cc3[nH]c(Nc4c(Cl)cccc4Cl)nc3cn2)c1` [Example 396, N-(4-tert.-Butyl-pyridin-2-yl)-2-(2,6-dichlorophenylamino)-1H-imidazo[4,5-c]pyridine-6-carboxamide] belongs 100%. `Cn1c(Nc2c(Cl)cccc2Cl)nc2cc(C(=O)Nc3ccc(Br)cc3)cnc21` [Example 463]: the “% inhib.” value (percentage inhibition of mPGES-1 at 10 μM (unless otherwise specified)) turned out to be 97%. On to `Cn1c(Nc2c(F)cccc2Cl)nc2cc(C(=O)Nc3ccc(Br)cc3)ncc21` [Example 361, N-(4-Bromophenyl)-2-(2-chloro-6-fluoro-phenylamino)-3-methyl-3H-imidazo[4,5-c]pyridine-6-carboxamide], for which the inhibition at 10 µM was 100%. In the case of `Cc1cnc(NC(=O)c2cc3[nH]c(Nc4c(Cl)cccc4Cl)nc3cn2)cc1C` [Example 717, 2-(2,6-Dichlorophenylamino)-N-(4,5-dimethyl-pyridin-2-yl)-1H-imidazo[4,5-c]pyridine-6-carboxamide], the inhibition at 10 µM turned out to be 100%.

`Cn1c(Nc2c(F)cccc2Cl)nc2cc(C(=O)NCc3ncccc3C3CC3)ncc21` [Example 522, 2-(2-Chloro-6-fluorophenylamino)-N-((3-cyclopropylpyridin-2-yl)-methyl)-3-methyl-3H-imidazo[4,5-c]pyridine-6-carboxamide]: the inhibition at 10 µM stood at 100%. As for `Cn1c(Nc2c(Cl)cccc2Cl)nc2cc(C(=O)Nc3cc(C(F)(F)F)ccn3)ncc21` [Example 364, 2-(2,6-Dichlorophenylamino)-3-methyl-N-(4-trifluoromethyl-pyridin-2-yl)-3H-imidazo[4,5-c]pyridine-6-carboxamide], the inhibition at 10 µM worked out at 100%. Same read-out and setting: to `Cn1c(Nc2c(Cl)cccc2Cl)nc2cc(C(=O)NC3CCC4(CC3)CC4)ncc21` [Example 425, 2-(2,6-Dichlorophenylamino)-3-methyl-N-(spiro[2.5]octan-6-yl)-3H-imidazo[4,5-c]-pyridine-6-carboxamide] belongs 100%; to `O=C(Nc1cc(C(F)(F)F)ccn1)c1cc2[nH]c(Nc3c(F)cccc3C(F)(F)F)nc2cn1` [Example 727, 2-(2-Fluoro-6-trifluoromethyl-phenylamino)-N-(4-trifluoromethyl-pyridin-2-yl)-1H-imidazo[4,5-c]pyridine-6-carboxamide], 99%; to `O=C(NCc1ccccc1C(F)(F)F)c1cc2[nH]c(Nc3c(Cl)cccc3Cl)nc2cn1` [Example 477, 2-(2,6-Dichlorophenylamino)-N-(2-trifluoromethyl-benzyl)-1H-imidazo[4,5-c]pyridine-6-carboxamide], 97%.

`Cn1c(Nc2c(Cl)cccc2Cl)nc2cc(C(=O)NC3CCC(C)(C)CC3)ncc21` [Example 406, 2-(2,6-Dichlorophenylamino)-N-(4,4-dimethylcyclohexyl)-3-methyl-3H-imidazo[4,5-c]pyridine-6-carboxamide]: the inhibition at 10 µM worked out at 100%. On to `Cn1c(Nc2c(F)cccc2Cl)nc2cc(C(=O)NC3CCCCC3)ncc21` [Example 444, 2-(2-Chloro-6-fluorophenylamino)-N-cyclohexyl-3-methyl-3H-imidazo[4,5-c]-pyridine-6-carboxamide], for which the inhibition at 10 µM was 100%. Same read-out and setting: next, `Cn1c(Nc2c(F)cccc2Cl)nc2cc(C(=O)NC3CCC(C)(C)CC3)ncc21` [Example 389, 2-(2-Chloro-6-fluorophenylamino)-N-(4,4-dimethylcyclohexyl)-3-methyl-3H-imidazo[4,5-c]-pyridine-6-carboxamide]: 100%; `O=C(NCc1ncccc1C(F)(F)F)c1cc2[nH]c(Nc3c(Cl)cccc3Cl)nc2cn1` [Example 509, 2-(2,6-Dichlorophenylamino)-N-((3-trifluoromethyl-pyridin-2-yl)methyl)-1H-imidazo[4,5-c]pyridine-6-carboxamide]: 97%. In the case of `Cn1c(Nc2c(Cl)cccc2Cl)nc2cc(C(=O)NC3CCCCC3)ncc21` [Example 487, N-Cyclohexyl-2-(2,6-dichlorophenylamino)-3-methyl-3H-imidazo[4,5-c]pyridine-6-carboxamide], the inhibition at 10 µM turned out to be 100%. For the molecule `Cn1c(Nc2c(Cl)cncc2Cl)nc2cc(C(=O)NCc3ncccc3C(F)(F)F)ncc21` [Example 550, 2-(3,5-Dichloropyridin-4-ylamino)-3-methyl-N-((3-trifluoromethyl-pyridin-2-yl)-methyl)-3H-imidazo[4,5-c]pyridine-6-carboxamide], the inhibition at 10 µM worked out at 95%. Take `O=C(Nc1cc(C(F)(F)F)cc(Cl)n1)c1cc2[nH]c(Nc3c(Cl)cncc3Cl)nc2cn1` [Example 736, 2-(3,5-Dichloro-pyridin-4-yl-amino)-N-(6-chloro-4-trifluoromethyl-pyridin-2-yl)-1H-imidazo[4,5-c]pyridine-6-carboxamide]: the inhibition at 10 µM came to 98%.

In the case of `CC(C)c1ccc(NC(=O)c2cc3[nH]c(Nc4c(Cl)cncc4Cl)nc3cn2)nc1` [Example 737, 2-(3,5-Dichloro-pyridin-4-yl-amino)-N-(5-isopropyl-pyridin-2-yl)-1H-imidazo[4,5-c]pyridine-6-carboxamide], the inhibition at 10 µM was found to be 97%. For the molecule `Cn1c(Nc2c(Cl)cncc2Cl)nc2cc(C(=O)N[C@H]3CC[C@H](C(F)(F)F)CC3)ncc21` [Example 515, 2-(3,5-Dichloropyridin-4-ylamino)-3-methyl-N-((1r,4r)-4-trifluoromethyl-cyclohexyl)-3H-imidazo[4,5-c]pyridine-6-carboxamide], the inhibition at 10 µM was determined as 100%.

As usually defined, the inhibition is the drop in the measured response relative to a control, in per cent.

For the origin of these results see patent US8598190B2, “3H-imidazo [4, 5-C] pyridine-6-carboxamides as anti-inflammatory agents” (Boehringer Ingelheim International GmbH, priority 2008, dated 2013).
